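A five-concentration, 48-hour dose response in 96-well plates underlies each endpoint, interpolated linearly between surrounding concentrations. TGI marks complete inhibition of growth.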
Experiments:
Assay in all cases: NCI tumour cell line growth inhibition, 48 h
EKVX NSCLC = tested on: EKVX NSCLC
SF-268 CNS = tested on: SF-268 CNS
SK-MEL-5 melanoma = tested on: SK-MEL-5 melanoma
SR leukemia = tested on: SR leukemia
MDA-MB-435 = tested on: MDA-MB-435
NCI-H522 lung = tested on: NCI-H522 lung
SF-295 CNS = tested on: SF-295 CNS
OVCAR-3 ovarian = tested on: OVCAR-3 ovarian
HCT-116 colon = tested on: HCT-116 colon
DU-145 prostate = tested on: DU-145 prostate
OVCAR-4 ovarian = tested on: OVCAR-4 ovarian
MDA-MB-231 breast = tested on: MDA-MB-231 breast
K-562 leukemia = tested on: K-562 leukemia
LOX IMVI melanoma = tested on: LOX IMVI melanoma
HCT-15 colon = tested on: HCT-15 colon
HOP-62 NSCLC = tested on: HOP-62 NSCLC
SK-MEL-2 melanoma = tested on: SK-MEL-2 melanoma
NCI-H23 lung = tested on: NCI-H23 lung
MOLT-4 leukemia = tested on: MOLT-4 leukemia
SNB-75 CNS = tested on: SNB-75 CNS

Row | Compound | TGI (EKVX NSCLC) [µM] | TGI (SF-268 CNS) [µM] | TGI (SK-MEL-5 melanoma) [µM] | TGI (SR leukemia) [µM] | TGI (MDA-MB-435) [µM] | TGI (NCI-H522 lung) [µM] | TGI (SF-295 CNS) [µM] | TGI (OVCAR-3 ovarian) [µM] | TGI (HCT-116 colon) [µM] | TGI (DU-145 prostate) [µM] | TGI (OVCAR-4 ovarian) [µM] | TGI (MDA-MB-231 breast) [µM] | TGI (K-562 leukemia) [µM] | TGI (LOX IMVI melanoma) [µM] | TGI (HCT-15 colon) [µM] | TGI (HOP-62 NSCLC) [µM] | TGI (SK-MEL-2 melanoma) [µM] | TGI (NCI-H23 lung) [µM] | TGI (MOLT-4 leukemia) [µM] | TGI (SNB-75 CNS) [µM]
1 | COC1=C(OC)C(=O)C(Cc2c(C)nc3sccn23)=C(C)C1=O | 29 | 37.3 | 17.6 | 38.9 | 28.6 | 54.9 | 30 | 34.3 | 64.2 | 38.6 | 18.1 | 32.9 | 39.8 | 36.5 | 41 | 34.8 | 41.5 | 29.5 | – | –
2 | CCCCC1Cc2ccccc2-c2nc3ccccc3n21 (stereo not drawn) | 50 | 33 | 31.1 | 24.3 | 37.1 | 26.5 | 30.8 | 30.3 | 26.6 | 38.1 | 29.8 | 31.7 | 31.7 | 31.6 | 28.4 | 36.5 | 30.7 | 32 | 32.9 | –
3 | CN(C)CCCN=c1c2ccccc2n(O)c2ccccc12 | > 100 | > 100 | > 100 | – | > 100 | > 100 | > 100 | > 100 | > 100 | > 100 | > 100 | > 100 | > 100 | > 100 | > 100 | > 100 | > 100 | > 100 | > 100 | > 100
4 | C[N+]1(C)CCc2cc(O)c(O)cc2C1Cc1ccc(O)c(O)c1 (stereo not drawn) | > 100 | > 100 | > 100 | 86.1 | 39.7 | 58.4 | > 100 | > 100 | 47.8 | > 100 | 45.6 | > 100 | > 100 | 81 | > 100 | > 100 | > 100 | > 100 | 68.8 | –
5 | Cc1ccc2c3c1O[C@H]1c4[nH]c5ccccc5c4C[C@@]4(O)[C@@H](C2)N(CC2CC2)CC[C@]314 | 32.9 | 30.1 | 27.8 | 46.8 | 26.8 | 29.5 | 31.1 | 27.5 | 27.9 | 30.5 | 17.8 | 35.6 | 61.1 | 33.1 | 38.1 | 33.3 | 31.6 | 39.5 | 32.9 | –
6 | C=CCCC1(CC(Sc2ccccc2)P(=O)(c2ccccc2)c2ccccc2)OCCO1 (stereo not drawn) | > 10 | > 10 | > 10 | > 10 | > 10 | – | > 10 | > 10 | > 10 | > 10 | > 10 | > 10 | > 10 | > 10 | > 10 | > 10 | > 10 | > 10 | > 10 | –
7 | Cc1ccc([N+](=O)[O-])c2c(NCCC[N+](C)(C)[O-])c3ccccc3nc12 | 3.88 | 24.9 | 2.46 | – | 5.15 | – | > 100 | > 41.3 | 5 | 8.19 | 21.2 | 6.28 | > 38.3 | 9.2 | 33 | > 41.1 | 2.25 | 3.41 | – | 2.49
8 | COC(=O)C1=CS/C(=C2\S[C@@H]3[C@H](S2)[C@H]2C=C[C@@H]3C2)S1 | – | > 100 | > 100 | > 100 | 5.09 | – | 17.9 | > 100 | > 100 | > 100 | > 100 | > 100 | 18.5 | > 100 | > 100 | > 100 | > 100 | > 100 | > 100 | > 100
9 | CC(CC[C@@]1(C)C(=O)CCC2O[C@]21C)[C@H]1C[C@@H](c2ccoc2)OC1=O (stereo partly drawn) | > 100 | 94.6 | > 100 | > 100 | > 100 | 22.2 | > 100 | 66.1 | 38.4 | > 100 | 55.3 | – | 51 | 48.2 | > 100 | > 100 | > 100 | > 100 | 84.7 | –
10 | COC(=O)c1cc2c(cc1Cl)Sc1nnc(Nc3ccc(C)cc3)n1S2(=O)=O | 27.7 | 10.9 | 27.6 | 6.2 | 21.1 | 10.3 | 30.4 | 5.77 | 24.5 | 7.31 | 10.7 | 27.2 | 33.4 | – | 12.5 | 23.5 | 9.16 | 15.7 | 7.07 | –
11 | O=C(c1cccs1)N1CCc2ccccc2C1 | > 100 | > 100 | > 100 | > 100 | > 100 | > 100 | > 100 | > 100 | > 100 | > 100 | – | > 100 | > 100 | > 100 | > 100 | > 100 | > 100 | > 100 | > 100 | –
12 | CCc1cc(Cc2cc(CC)c(NC(=O)C(=O)CC(=O)c3sc(-c4cccnc4)nc3C)c(CC)c2)cc(CC)c1NC(=O)C(=O)CC(=O)c1sc(-c2cccnc2)nc1C | > 100 | > 100 | > 100 | – | > 100 | > 100 | > 100 | > 100 | > 100 | > 100 | > 100 | > 100 | > 100 | > 100 | > 100 | – | > 100 | > 100 | > 100 | > 100
13 | C[C@@H](c1ccccc1)n1c(N)c(C#N)c2ccc([N+](=O)[O-])cc2c1=O | – | > 100 | 50.8 | 12.2 | 61 | – | – | – | 28.8 | 33 | 35.7 | 37 | 26.1 | 34.9 | 28.2 | – | > 100 | 43 | – | 46.2

From PubChem BioAssay (NCI)
